Experimental data taken from patent US11597708B2, “Inhibitors of heat shock factors and uses thereof” (HSF Pharmaceuticals SA, priority 2016, dated 2023).

Target: T1, LexA-hHSF (Homo sapiens, UniProt Q00613)
T1 construct: expressed in transfected cells; the other entry of the earlier key: lexA (P0A7C2, LexA repressor)
T1 sequence (Q00613 with tags, fused parts or gaps): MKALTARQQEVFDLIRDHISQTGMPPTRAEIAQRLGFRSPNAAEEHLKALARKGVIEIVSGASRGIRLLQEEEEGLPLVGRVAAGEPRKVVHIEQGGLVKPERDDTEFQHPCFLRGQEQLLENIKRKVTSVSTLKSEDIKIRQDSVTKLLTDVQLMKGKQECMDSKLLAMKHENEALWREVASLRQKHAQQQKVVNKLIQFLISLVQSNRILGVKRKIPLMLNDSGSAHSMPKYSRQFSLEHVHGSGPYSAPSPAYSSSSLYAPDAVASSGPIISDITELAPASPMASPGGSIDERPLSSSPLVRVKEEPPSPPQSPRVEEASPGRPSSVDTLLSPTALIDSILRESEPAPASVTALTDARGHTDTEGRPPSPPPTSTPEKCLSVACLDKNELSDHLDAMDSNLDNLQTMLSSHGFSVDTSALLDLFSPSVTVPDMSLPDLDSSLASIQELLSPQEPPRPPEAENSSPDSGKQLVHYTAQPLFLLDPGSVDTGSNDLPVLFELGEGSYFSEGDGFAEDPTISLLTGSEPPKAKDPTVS
Experiment: Z74 cell-based reporter assay: heat-induced FLuc expression controlled by chimeric LexA-HSF1
Details: IHSF 001 tested at 25 μM
Source text: For screening this sublibrary, a cell-based assay was developed. We opted for a cell-based assay, because a cell-free assay would have had to be a DNA-binding assay. Such an assay would have limited discovery to molecules capable of interfering with the DNA-binding function of HSF1. This was thought to be too narrow a focus, considering that three of the four cavities identified in the HSF1 DNA-binding domain are not near the DNA interaction region. A straightforward cell-based assay, in which a HSF1-responsive gene would be assayed, was considered likely to be over-inclusive. Compounds would be scored as hits that inhibit any factor that is involved in HSF1 activation or prevents HSF1 deactivation. These factors include protein kinases, activators of protein phosphatases, factors affecting HSF1 mRNA stability, HSP90, HDAC6, etc. For developing a more discriminating cell-based assay, advantage was taken of the modular nature of HSF1. […] The cell-based assay developed (see below for the particular format employed) compared transactivation by wild type HSF1 and chimeric HSF1 in cells exposed to an HSF1-activating heat treatment in the presence of a sublibrary compound. A compound was scored as a hit, if it inhibited the activity of wild type HSF1 but not of chimeric HSF1.
The cell-based assay made use of HeLa-derived cell line Z74 that stably contains a gene for chimeric transcription factor LexA-(human) HSF1 under the control of a CMV early promoter, a firefly luciferase (flue) gene driven by a promoter responsive to the latter chimeric transcription factor and a Renilla luciferase (rluc) gene functionally linked to an hsp70b promoter and therefore controlled by endogenous HSF1 (FIG. 1A). As is shown in FIGS. 1B & C, the reporter genes responded similarly to heat dose, i.e., their activation depended on both duration of heat exposure and temperature of the exposure. […] Depletion of HSF1 (and LexA-HSF1) by siRNA supported the notion that this stress regulation is mediated by HSF1 (and LexA-HSF1). Therefore, the Z74 line was well suited for use in a screening assay aimed at discovering molecules that inhibit heat-induced HSF1 activity through interaction with the transcription factor's DNA-binding domain.
The compounds of the afore-mentioned biased sublibrary were screened in cell line Z74 at 12.5 and 25 μM concentrations. Typically, Z74 cultures in 96-well plates were exposed to compound or vehicle for 2 h, heat-treated at 43.0° C. for 30 min, and incubated further for 6 h at 37° C. to allow for accumulation of the luciferases. RLuc and FLuc activities were determined, typically using the Dual-Glo® Luciferase Assay System (Promega Corp., Madison, Wis.), and reading luciferase light counts in a Wallac Microbeta Trilux-1450 Luminometer (PerkinElmer, Waltham, Mass.). IHSF 001 was one of two library compounds that inhibited RLuc expression but not FLuc expression in heat-treated Z74 cells (Table 1; FIG. 2A). Therefore, IHSF 001 is an inhibitor of HSF1 function that specifically acts through the HSF1 DNA-binding domain. […] A corroborating experiment utilized a cell line containing an hsp70b promoter-driven fluc gene. […] IHSF 001 is (E)-ethyl 4-oxo-4-(thiazol-2-ylamino)but-2-enoate. The compound can be obtained from commercial sources (e.g., AKE-PB-90340538, Akos).

## CCOC(=O)/C=C/C(=O)Nc1nccs1 [IHSF 001, (E)-ethyl 4-oxo-4-(thiazol-2-ylamino)but-2-enoate]
Experiment No. 1
  inhibition at 25 µM: 3%
Experiment No. 2
  inhibition at 25 µM: 0%
Experiment No. 3
  inhibition at 25 µM: 0%
Experiment No. 4
  inhibition at 25 µM: 0%
Experiment No. 5
  inhibition at 25 µM: 0%
Experiment No. 6
  inhibition at 25 µM: 0%
Experiment No. 7
  inhibition at 25 µM: 0%
Experiment No. 8
  inhibition at 25 µM: 0%
Experiment No. 9
  inhibition at 25 µM: 15%
